Legend:
Assay in all cases: Kinase profiling
Assay type in all cases: biochemical
IR(h) = target: T1, IR(h) (Homo sapiens, UniProt P06213)
T1 construct: purchased Eurofins Cerep SA (KinaseProfiler)
Method: (§1) 380 kinases inhibitory activities of SKLB-D18 were conducted by Eurofins Cerep SA. The result was illustrated by kinase tree (http://www.kinhub.org/kinmap/).

MRCKα(h) = target: T2, MRCKα(h) (Homo sapiens, UniProt Q5VT25)
T2 construct: purchased Eurofins Cerep SA (KinaseProfiler)
Method: as §1

CaMKIδ(h) = target: T3, CaMKIδ(h) (Homo sapiens, UniProt Q8IU85)
T3 construct: purchased Eurofins Cerep SA (KinaseProfiler)
Method: as §1

Syk(h) = target: T4, Syk(h) (Homo sapiens, UniProt P43405)
T4 construct: purchased Eurofins Cerep SA (KinaseProfiler)
Method: as §1

CDKL2(h) = target: T5, CDKL2(h) (Homo sapiens, UniProt Q92772)
T5 construct: purchased Eurofins Cerep SA (KinaseProfiler)
Method: as §1

PKD2(h) = target: T6, PKD2(h) (Homo sapiens, UniProt Q9BZL6)
T6 construct: purchased Eurofins Cerep SA (KinaseProfiler)
Method: as §1

STK33(h) = target: T7, STK33(h) (Homo sapiens, UniProt Q9BYT3)
T7 construct: purchased Eurofins Cerep SA (KinaseProfiler)
Method: as §1

VRK2(h) = target: T8, VRK2(h) (Homo sapiens, UniProt Q86Y07)
T8 construct: purchased Eurofins Cerep SA (KinaseProfiler)
Method: as §1

PKBγ(h) = target: T9, PKBγ(h) (Homo sapiens, UniProt Q9Y243)
T9 construct: purchased Eurofins Cerep SA (KinaseProfiler)
Method: as §1

EphB4(h) = target: T10, EphB4(h) (Homo sapiens, UniProt P54760)
T10 construct: purchased Eurofins Cerep SA (KinaseProfiler)
Method: as §1

MELK(h) = target: T11, MELK(h) (Homo sapiens, UniProt Q14680)
T11 construct: purchased Eurofins Cerep SA (KinaseProfiler)
Method: as §1

ALK4(h) = target: T12, ALK4(h) (Homo sapiens, UniProt P36896)
T12 construct: purchased Eurofins Cerep SA (KinaseProfiler)
Method: as §1

CLIK1(h) = target: T13, CLIK1(h) (Homo sapiens, UniProt Q8TDR2)
T13 construct: purchased Eurofins Cerep SA (KinaseProfiler)
Method: as §1

CDK6/cyclinD3(h) = target: T14, CDK6/cyclinD3(h) (Homo sapiens, UniProt Q00534)
T14 construct: purchased Eurofins Cerep SA (KinaseProfiler)
Method: as §1

EphA1(h) = target: T15, EphA1(h) (Homo sapiens, UniProt P21709)
T15 construct: purchased Eurofins Cerep SA (KinaseProfiler)
Method: as §1

p70S6K(h) = target: T16, p70S6K(h) (Homo sapiens, UniProt P23443)
T16 construct: purchased Eurofins Cerep SA (KinaseProfiler)
Method: as §1

CDK3/cyclinE(h) = target: T17, CDK3/cyclinE(h) (Homo sapiens, UniProt Q00526)
T17 construct: purchased Eurofins Cerep SA (KinaseProfiler)
Method: as §1

FGFR1(h) = target: T18, FGFR1(h) (Homo sapiens, UniProt P11362)
T18 construct: purchased Eurofins Cerep SA (KinaseProfiler)
Method: as §1

PKD3(h) = target: T19, PKD3(h) (Homo sapiens, UniProt O94806)
T19 construct: purchased Eurofins Cerep SA (KinaseProfiler)
Method: as §1

LATS2(h) = target: T20, LATS2(h) (Homo sapiens, UniProt Q9NRM7)
T20 construct: purchased Eurofins Cerep SA (KinaseProfiler)
Method: as §1

BRK(h) = target: T21, BRK(h) (Homo sapiens, UniProt Q13882)
T21 construct: purchased Eurofins Cerep SA (KinaseProfiler)
Method: as §1

PAK5(h) = target: T22, PAK5(h) (Homo sapiens, UniProt Q9P286)
T22 construct: purchased Eurofins Cerep SA (KinaseProfiler)
Method: as §1

PRAK(h) = target: T23, PRAK(h) (Homo sapiens, UniProt Q8IW41)
T23 construct: purchased Eurofins Cerep SA (KinaseProfiler)
Method: as §1

Flt3(h) = target: T24, Flt3(h) (Homo sapiens, UniProt P36888)
T24 construct: purchased Eurofins Cerep SA (KinaseProfiler)
Method: as §1

FGFR4(h) = target: T25, FGFR4(h) (Homo sapiens, UniProt P22455)
T25 construct: purchased Eurofins Cerep SA (KinaseProfiler)
Method: as §1

ALK1(h) = target: T26, ALK1(h) (Homo sapiens, UniProt P37023)
T26 construct: purchased Eurofins Cerep SA (KinaseProfiler)
Method: as §1

ALK2(h) = target: T27, ALK2(h) (Homo sapiens, UniProt Q04771)
T27 construct: purchased Eurofins Cerep SA (KinaseProfiler)
Method: as §1

CHK1(h) = target: T28, CHK1(h) (Homo sapiens, UniProt O14757)
T28 construct: purchased Eurofins Cerep SA (KinaseProfiler)
Method: as §1

IRAK1(h) = target: T29, IRAK1(h) (Homo sapiens, UniProt P51617)
T29 construct: purchased Eurofins Cerep SA (KinaseProfiler)
Method: as §1

Met(h) = target: T30, Met(h) (Homo sapiens, UniProt P08581)
T30 construct: purchased Eurofins Cerep SA (KinaseProfiler)
Method: as §1

MST2(h) = target: T31, MST2(h) (Homo sapiens, UniProt Q13188)
T31 construct: purchased Eurofins Cerep SA (KinaseProfiler)
Method: as §1

EphA2(h) = target: T32, EphA2(h) (Homo sapiens, UniProt P29317)
T32 construct: purchased Eurofins Cerep SA (KinaseProfiler)
Method: as §1

FGFR2(h) = target: T33, FGFR2(h) (Homo sapiens, UniProt P21802)
T33 construct: purchased Eurofins Cerep SA (KinaseProfiler)
Method: as §1

SAPK2a(h) = target: T34, SAPK2a(h) (Homo sapiens, UniProt Q16539)
T34 construct: purchased Eurofins Cerep SA (KinaseProfiler)
Method: as §1

RIPK2(h) = target: T35, RIPK2(h) (Homo sapiens, UniProt O43353)
T35 construct: purchased Eurofins Cerep SA (KinaseProfiler)
Method: as §1

NEK4(h) = target: T36, NEK4(h) (Homo sapiens, UniProt P51957)
T36 construct: purchased Eurofins Cerep SA (KinaseProfiler)
Method: as §1

GSK3β(h) = target: T37, GSK3β(h) (Homo sapiens, UniProt P49841)
T37 construct: purchased Eurofins Cerep SA (KinaseProfiler)
Method: as §1

PRK2(h) = target: T38, PRK2(h) (Homo sapiens, UniProt Q16513)
T38 construct: purchased Eurofins Cerep SA (KinaseProfiler)
Method: as §1

NEK5(h) = target: T39, NEK5(h) (Homo sapiens, UniProt Q6P3R8)
T39 construct: purchased Eurofins Cerep SA (KinaseProfiler)
Method: as §1

CK1ε(h) = target: T40, CK1ε(h) (Homo sapiens, UniProt P49674)
T40 construct: purchased Eurofins Cerep SA (KinaseProfiler)
Method: as §1

CDK14/cyclinY(h) = target: T41, CDK14/cyclinY(h) (Homo sapiens, UniProt O94921)
T41 construct: purchased Eurofins Cerep SA (KinaseProfiler)
Method: as §1

T6 sequence (Q9BZL6 whole entry): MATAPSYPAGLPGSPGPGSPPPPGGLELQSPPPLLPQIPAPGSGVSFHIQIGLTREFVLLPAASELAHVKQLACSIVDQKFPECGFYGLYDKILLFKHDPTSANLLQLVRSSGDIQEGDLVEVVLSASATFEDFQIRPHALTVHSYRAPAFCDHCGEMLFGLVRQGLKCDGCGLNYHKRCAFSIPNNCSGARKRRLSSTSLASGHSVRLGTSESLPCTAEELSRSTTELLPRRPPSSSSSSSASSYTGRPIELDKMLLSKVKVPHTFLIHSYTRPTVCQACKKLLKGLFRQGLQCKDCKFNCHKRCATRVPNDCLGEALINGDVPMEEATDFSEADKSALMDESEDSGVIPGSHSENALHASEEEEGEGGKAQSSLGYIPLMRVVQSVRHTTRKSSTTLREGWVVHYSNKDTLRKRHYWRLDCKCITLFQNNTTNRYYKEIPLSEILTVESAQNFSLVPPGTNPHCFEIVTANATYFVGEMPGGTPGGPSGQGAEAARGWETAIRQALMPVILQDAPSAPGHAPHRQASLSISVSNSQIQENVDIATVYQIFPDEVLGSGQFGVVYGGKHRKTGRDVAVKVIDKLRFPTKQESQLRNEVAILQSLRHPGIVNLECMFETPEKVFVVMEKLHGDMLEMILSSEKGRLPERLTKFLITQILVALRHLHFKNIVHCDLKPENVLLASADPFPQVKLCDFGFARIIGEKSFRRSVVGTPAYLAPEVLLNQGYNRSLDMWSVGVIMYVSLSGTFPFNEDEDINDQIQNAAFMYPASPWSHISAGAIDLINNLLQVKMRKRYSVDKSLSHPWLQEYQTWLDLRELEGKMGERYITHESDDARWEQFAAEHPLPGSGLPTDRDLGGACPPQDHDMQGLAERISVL
T41 sequence (O94921 whole entry): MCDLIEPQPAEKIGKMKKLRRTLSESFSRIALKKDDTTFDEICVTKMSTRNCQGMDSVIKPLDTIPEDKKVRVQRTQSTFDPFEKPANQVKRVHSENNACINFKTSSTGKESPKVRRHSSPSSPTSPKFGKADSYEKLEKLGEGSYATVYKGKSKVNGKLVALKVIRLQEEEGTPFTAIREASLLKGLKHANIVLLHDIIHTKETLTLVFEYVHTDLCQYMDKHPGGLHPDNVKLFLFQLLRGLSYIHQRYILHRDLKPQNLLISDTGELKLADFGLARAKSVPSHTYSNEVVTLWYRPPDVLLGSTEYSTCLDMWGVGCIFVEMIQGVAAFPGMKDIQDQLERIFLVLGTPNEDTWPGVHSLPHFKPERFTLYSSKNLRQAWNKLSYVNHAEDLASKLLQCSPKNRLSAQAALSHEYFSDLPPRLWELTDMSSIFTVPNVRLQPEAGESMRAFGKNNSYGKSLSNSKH
T41 sequence (Q8ND76 whole entry partner): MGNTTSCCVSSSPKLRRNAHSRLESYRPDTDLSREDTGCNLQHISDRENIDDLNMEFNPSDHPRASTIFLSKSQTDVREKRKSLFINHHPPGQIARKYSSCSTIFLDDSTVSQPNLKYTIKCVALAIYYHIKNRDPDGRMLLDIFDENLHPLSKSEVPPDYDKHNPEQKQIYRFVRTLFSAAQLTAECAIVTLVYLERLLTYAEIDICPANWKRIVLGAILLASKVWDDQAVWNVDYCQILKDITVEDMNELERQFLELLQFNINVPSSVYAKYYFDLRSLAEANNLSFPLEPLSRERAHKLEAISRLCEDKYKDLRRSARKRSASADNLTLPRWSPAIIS
T10 sequence (P54760 16-987): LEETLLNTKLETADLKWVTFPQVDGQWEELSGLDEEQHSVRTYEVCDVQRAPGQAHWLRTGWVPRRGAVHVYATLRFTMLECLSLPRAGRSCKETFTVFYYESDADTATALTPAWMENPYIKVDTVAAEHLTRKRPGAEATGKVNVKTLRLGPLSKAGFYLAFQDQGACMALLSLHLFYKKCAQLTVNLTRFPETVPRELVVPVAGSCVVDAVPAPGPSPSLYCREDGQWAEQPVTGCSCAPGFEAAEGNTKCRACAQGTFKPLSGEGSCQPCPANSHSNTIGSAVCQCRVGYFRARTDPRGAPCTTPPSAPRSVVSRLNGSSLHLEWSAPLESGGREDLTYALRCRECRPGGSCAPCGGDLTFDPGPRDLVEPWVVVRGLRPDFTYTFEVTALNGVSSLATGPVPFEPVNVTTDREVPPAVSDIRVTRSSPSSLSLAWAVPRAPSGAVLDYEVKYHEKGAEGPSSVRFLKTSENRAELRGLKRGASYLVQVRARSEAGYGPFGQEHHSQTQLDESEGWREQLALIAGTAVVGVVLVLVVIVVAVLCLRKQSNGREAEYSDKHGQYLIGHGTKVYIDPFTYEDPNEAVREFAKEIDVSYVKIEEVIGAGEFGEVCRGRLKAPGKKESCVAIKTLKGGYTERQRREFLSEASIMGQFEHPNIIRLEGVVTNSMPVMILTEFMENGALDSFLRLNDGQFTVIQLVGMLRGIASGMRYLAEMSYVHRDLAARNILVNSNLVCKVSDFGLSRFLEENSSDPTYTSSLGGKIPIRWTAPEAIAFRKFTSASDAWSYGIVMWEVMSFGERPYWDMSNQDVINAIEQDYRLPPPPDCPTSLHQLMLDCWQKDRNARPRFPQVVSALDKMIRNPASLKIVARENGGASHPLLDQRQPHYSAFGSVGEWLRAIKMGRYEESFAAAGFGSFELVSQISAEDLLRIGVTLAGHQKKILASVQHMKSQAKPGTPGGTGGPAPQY
T18 sequence (P11362 22-822): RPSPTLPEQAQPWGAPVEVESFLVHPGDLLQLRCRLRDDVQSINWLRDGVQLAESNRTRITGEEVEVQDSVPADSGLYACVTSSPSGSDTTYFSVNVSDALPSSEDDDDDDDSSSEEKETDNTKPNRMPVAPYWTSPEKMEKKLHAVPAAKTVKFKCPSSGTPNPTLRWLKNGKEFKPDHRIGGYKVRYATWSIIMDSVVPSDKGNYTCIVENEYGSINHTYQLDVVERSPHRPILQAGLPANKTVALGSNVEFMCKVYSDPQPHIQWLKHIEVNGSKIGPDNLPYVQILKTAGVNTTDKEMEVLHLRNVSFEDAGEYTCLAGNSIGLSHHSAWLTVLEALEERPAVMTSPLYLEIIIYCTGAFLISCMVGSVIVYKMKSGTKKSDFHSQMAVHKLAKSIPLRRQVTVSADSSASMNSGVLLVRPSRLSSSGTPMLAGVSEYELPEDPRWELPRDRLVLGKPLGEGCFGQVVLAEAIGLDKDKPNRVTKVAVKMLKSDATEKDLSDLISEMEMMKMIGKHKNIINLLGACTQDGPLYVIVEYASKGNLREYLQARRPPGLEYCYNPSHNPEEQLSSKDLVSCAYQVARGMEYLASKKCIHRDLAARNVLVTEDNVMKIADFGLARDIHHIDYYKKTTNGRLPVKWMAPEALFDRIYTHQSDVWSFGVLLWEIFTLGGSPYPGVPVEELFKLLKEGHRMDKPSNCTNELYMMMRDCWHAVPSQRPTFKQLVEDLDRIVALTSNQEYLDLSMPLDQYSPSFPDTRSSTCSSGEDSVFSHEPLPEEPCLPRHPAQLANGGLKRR
T39 sequence (Q6P3R8 whole entry): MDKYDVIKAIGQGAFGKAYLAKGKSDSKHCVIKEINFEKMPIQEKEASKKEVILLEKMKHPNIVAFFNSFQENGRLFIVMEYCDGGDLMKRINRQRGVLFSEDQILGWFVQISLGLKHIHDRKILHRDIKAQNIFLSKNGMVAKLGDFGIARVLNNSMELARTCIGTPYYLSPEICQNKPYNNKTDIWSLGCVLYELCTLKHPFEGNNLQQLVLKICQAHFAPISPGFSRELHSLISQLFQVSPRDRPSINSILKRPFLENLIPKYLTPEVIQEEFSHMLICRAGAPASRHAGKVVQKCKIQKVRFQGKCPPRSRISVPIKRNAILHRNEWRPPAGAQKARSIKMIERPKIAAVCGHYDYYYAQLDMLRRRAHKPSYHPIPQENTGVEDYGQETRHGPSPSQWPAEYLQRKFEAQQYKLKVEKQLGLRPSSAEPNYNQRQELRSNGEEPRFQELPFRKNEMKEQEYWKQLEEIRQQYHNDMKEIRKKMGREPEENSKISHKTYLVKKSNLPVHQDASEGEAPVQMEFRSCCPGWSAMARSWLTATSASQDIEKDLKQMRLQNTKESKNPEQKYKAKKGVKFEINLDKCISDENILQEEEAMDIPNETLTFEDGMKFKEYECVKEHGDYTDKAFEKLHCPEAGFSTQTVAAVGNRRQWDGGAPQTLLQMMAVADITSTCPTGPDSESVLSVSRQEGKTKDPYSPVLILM
T36 sequence (P51957 whole entry): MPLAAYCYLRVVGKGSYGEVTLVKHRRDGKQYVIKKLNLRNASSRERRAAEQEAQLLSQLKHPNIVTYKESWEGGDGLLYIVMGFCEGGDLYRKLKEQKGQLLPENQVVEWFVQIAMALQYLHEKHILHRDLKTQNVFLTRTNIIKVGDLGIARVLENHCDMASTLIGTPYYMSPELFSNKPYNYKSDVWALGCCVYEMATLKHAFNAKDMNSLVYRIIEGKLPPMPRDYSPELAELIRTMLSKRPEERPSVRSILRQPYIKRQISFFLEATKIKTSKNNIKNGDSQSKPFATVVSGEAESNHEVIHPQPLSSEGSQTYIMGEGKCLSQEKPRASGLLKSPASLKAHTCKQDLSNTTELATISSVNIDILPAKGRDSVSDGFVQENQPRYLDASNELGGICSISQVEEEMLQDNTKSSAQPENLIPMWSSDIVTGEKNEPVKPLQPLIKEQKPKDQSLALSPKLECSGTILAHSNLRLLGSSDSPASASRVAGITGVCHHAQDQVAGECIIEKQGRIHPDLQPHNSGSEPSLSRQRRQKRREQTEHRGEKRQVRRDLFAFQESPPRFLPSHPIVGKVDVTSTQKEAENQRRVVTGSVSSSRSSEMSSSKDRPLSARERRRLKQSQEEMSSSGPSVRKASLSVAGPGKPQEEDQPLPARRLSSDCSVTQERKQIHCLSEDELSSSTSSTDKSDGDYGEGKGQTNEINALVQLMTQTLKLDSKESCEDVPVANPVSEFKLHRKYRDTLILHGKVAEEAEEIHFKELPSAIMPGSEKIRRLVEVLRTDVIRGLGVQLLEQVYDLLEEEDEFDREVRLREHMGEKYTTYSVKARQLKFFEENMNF

CN(C)Cc1cccc(Nc2ncc(Cl)c(-c3csc(C(=O)NN4CCOCC4)c3)n2)c1 [SKLB-D18, 4-(5-chloro-2-((3-((dimethylamino)methyl)phenyl)amino)pyrimidin-4-yl)-N-morpholinothiophene-2-carboxamide]
inhibition at 1 µM (IR(h)): 0%
inhibition at 1 µM (MRCKα(h)): 2%
inhibition at 1 µM (CaMKIδ(h)): 47%
inhibition at 1 µM (Syk(h)): 38%
inhibition at 1 µM (CDKL2(h)): 39%
inhibition at 1 µM (PKD2(h)): 66%
inhibition at 1 µM (STK33(h)): 63%
inhibition at 1 µM (VRK2(h)): -3%
inhibition at 1 µM (PKBγ(h)): 14%
inhibition at 1 µM (EphB4(h)): 9%
inhibition at 1 µM (MELK(h)): 62%
inhibition at 1 µM (ALK4(h)): 26%
inhibition at 1 µM (CLIK1(h)): 12%
inhibition at 1 µM (CDK6/cyclinD3(h)): 47%
inhibition at 1 µM (EphA1(h)): 10%
inhibition at 1 µM (p70S6K(h)): 57%
inhibition at 1 µM (CDK3/cyclinE(h)): 16%
inhibition at 1 µM (FGFR1(h)): 70%
inhibition at 1 µM (PKD3(h)): 55%
inhibition at 1 µM (LATS2(h)): 37%
inhibition at 1 µM (BRK(h)): 32%
inhibition at 1 µM (PAK5(h)): 26%
inhibition at 1 µM (PRAK(h)): -2%
inhibition at 1 µM (Flt3(h)): 55%
inhibition at 1 µM (FGFR4(h)): 8%
inhibition at 1 µM (ALK1(h)): 20%
inhibition at 1 µM (ALK2(h)): 16%
inhibition at 1 µM (CHK1(h)): 36%
inhibition at 1 µM (IRAK1(h)): 60%
inhibition at 1 µM (Met(h)): 61%
inhibition at 1 µM (MST2(h)): 40%
inhibition at 1 µM (EphA2(h)): 17%
inhibition at 1 µM (FGFR2(h)): 55%
inhibition at 1 µM (SAPK2a(h)): 9%
inhibition at 1 µM (RIPK2(h)): 61%
inhibition at 1 µM (NEK4(h)): 66%
inhibition at 1 µM (GSK3β(h)): 68%
inhibition at 1 µM (PRK2(h)): 64%
inhibition at 1 µM (NEK5(h)): 68%
inhibition at 1 µM (CK1ε(h)): 18%
inhibition at 1 µM (CDK14/cyclinY(h)): 58%
